For 2 compounds, inhibition in vivo and EC50 results are on record in ChEMBL document CHEMBL3714747, “Imidazothiadiazole and imidazopyrazine derivatives as protease activated receptor 4 (par4) inhibitors for treating platelet aggregation” (2015).

For experiment [1], the system named is Cynomolgus monkey. The experiment is described as follows: Antithrombotic activity in cynomolgus monkey electrolytic injury-induced carotid artery thrombosis model assessed as reduction in thrmbosis-induced occlusion at 0.02 mg/kg, po dosed 1 to 2 hrs before test. The experiment is classed as functional. To be noted: Macaca fascicularis.
Experiment [2] has as its system Cynomolgus monkey. The experiment in a line: Antithrombotic activity in cynomolgus monkey electrolytic injury-induced carotid artery thrombosis model assessed as reduction in thrmbosis-induced occlusion at 0.1 mg/kg, po dosed 1 to 2 hrs before test. The experiment is classed as functional. To be noted: Macaca fascicularis.
Experiment [3] has as its system Cynomolgus monkey. The experiment in a line: (§1) Antithrombotic activity in cynomolgus monkey electrolytic injury-induced carotid artery thrombosis model assessed as reduction in thrmbosis-induced occlusion at […], po dosed 1 to 2 hrs before test. The experiment is classed as functional. To be noted: Macaca fascicularis.
Experiment [4] has as its system Cynomolgus monkey. The experiment in a line: Antithrombotic activity in cynomolgus monkey electrolytic injury-induced carotid artery thrombosis model assessed as reduction in thrmbosis-induced occlusion at 0.5 mg/kg, po dosed 1 to 2 hrs before test. The experiment is classed as functional. To be noted: Macaca fascicularis.
Experiment [5] deals with Cynomolgus monkey. The experiment is described as §1. The experiment is classed as functional. To be noted: Macaca fascicularis. The source holds these as a separate data set.
Experiment [6] has as its target T1, Proteinase-activated receptor 4 (Homo sapiens, UniProt Q96RI0).
T1 sequence (Q96RI0 whole entry): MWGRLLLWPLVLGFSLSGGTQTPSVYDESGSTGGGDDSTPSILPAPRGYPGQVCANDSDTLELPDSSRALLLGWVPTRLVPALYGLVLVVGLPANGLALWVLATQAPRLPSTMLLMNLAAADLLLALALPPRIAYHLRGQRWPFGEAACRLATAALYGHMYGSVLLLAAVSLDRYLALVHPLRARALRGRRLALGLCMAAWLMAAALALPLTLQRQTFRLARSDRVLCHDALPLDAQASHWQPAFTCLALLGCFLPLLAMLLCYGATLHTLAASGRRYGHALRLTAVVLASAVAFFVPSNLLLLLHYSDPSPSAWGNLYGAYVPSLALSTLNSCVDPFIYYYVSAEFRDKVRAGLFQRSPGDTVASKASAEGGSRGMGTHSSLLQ
The experiment in a line: Antagonist activity against human PAR4 expressed in HEK293 cells assessed as reduction in H-Ala-Phe(4-F)-Pro-Gly-Trp-Leu-Val-Lys-Asn-Gly-NH2-induced intracellular calcium mobilization incubated for 30 mins by FLIPR assay. The experiment is classed as functional, cell-based.

With `COc1cc(OCc2csc(-c3ccccc3)n2)c2cc(-c3cn4nc(OC)sc4n3)oc2c1`, the inhibition in vivo at 0.02 mg/kg in experiment [1] is 19%. For the same compound, the inhibition in vivo at 0.1 mg/kg in experiment [2] turned out to be 24%. Besides, the inhibition in vivo at […] came to 46% in experiment [3] and 51% in experiment [5]. Moreover, the inhibition in vivo at 0.5 mg/kg in experiment [4] was 47%.

Take `COc1cc(OCc2csc(N3CCN(c4cnccn4)CC3)n2)c2cc(-c3cn4nc(C)ccc4n3)oc2c1`: in experiment [6], the EC50 was 0.42 nM.
